# Experimental data published in US20030199424A1, “Method of treatment and/or prophylaxis” (priority 2002, published 2003).
# Entries after “also recorded” stand apart in the source; their conditions may differ. Read-outs that look alike come from different tables or passages of the source.
# What was measured:
# [1] = tested on: non-diabetic rats; experiment: Opioid-mediated antinociception (Von Frey, % MPE) in non-diabetic control rats; type: in vivo, rat; details: for ED50: Rattus norvegicus
# Method: A second group of STZ-diabetic rats received vehicle (DMSO:water 10:90) by oral gavage (protocol-control rats). In the third group, weight-matched, naive, non-diabetic control rats (non-diabetic candesartan control rats) were also treated with candesartan for one wk prior to opioid antinociceptive testing to determine any intrinsic effects of candesartan on baseline pain scores and on opioid-mediated antinociception.
# The statistical significance criterion was p<0.05.
# [2] = tested on: STZ-diabetic rats; details: cited from earlier work
# [3] = tested on: non-diabetic rats; details: control non-diabetic rats; previously determined by Saini (2000); cited from earlier work
# [4] = tested on: STZ-diabetic rats; experiment: Opioid-mediated antinociception (Von Frey, % MPE) in STZ-diabetic rats; details: for ED50: Rattus norvegicus; for timing of the peak antinociceptive effect: morphine 6.1 mg/kg s.c.; for time to reach peak levels of antinociception: s.c. morphine, high-dose oral candesartan-treated STZ-diabetic rats
# Method: In all cases, opioids were administered by a single s.c. injection (100 μL) into the dorsal region at the base of the neck whilst under light CO2/O2 (50:50%) anaesthesia using a 250 μL Hamilton syringe. […] By contrast, the opioid-naïve, weight-matched, non-diabetic candesartan control rats were given high-dose oral candesartan (2 mg/kg/day) for 7 days before opioid testing was initiated.
# Immediately prior to administration of s.c. bolus doses of either opioid, baseline paw withdrawal thresholds were quantified using VFFs in an identical manner to the weekly baseline Von Frey monitoring described above. Following s.c. opioid administration, VFF assessments were performed at the following post-dosing times: 15, 30, 45, 60, 90, 120 and 180 min.
# The VFF scores for individual rats were converted to the Percentage of the Maximum Possible Antinociceptive Effect (% MPE), according the following formula (Brady & Holtzmann, 1982): [formula]
# (§1) The mean (±SEM) percentage maximum AUC (% Max AUC) was calculated according to the following formula: [formula]
# ED50 estimation was facilitated by inclusion of the theoretical maximum and minimum % Max AUC values. The Mann-Whitney test was used to compare %MPE AUC ED50 values between treatment groups. The statistical significance criterion was p<0.05.
# [5] = molecular target: T1, CYP2D6 (Homo sapiens, UniProt P10635); details: humans, CYP2D6-mediated; cited from earlier work
# T1 construct: low extent of CYP2D6-mediated O-demethylation of oxycodone to oxymorphone in humans; host or cells: human subjects (in vivo metabolism)
# [6] = tested on: STZ-diabetic rats; experiment: Von Frey assessment of tactile allodynia (paw withdrawal threshold); type: in vivo, rat
# Method: Candesartan treatment was initiated after STZ administration (day 0) but prior to the onset of diabetes. Specifically, candesartan-treated rats received this drug via once-daily oral gavage in one of two dosages: viz a high-dose (2 mg/kg/day) or a low dose (0.5 mg/kg/day). The 2 mg/kg/day dose was chosen on the basis that it is an anti-hypertensive dose both in rats with perfused Ang II-induced hypertension and also in the spontaneously hypertensive rat (SHR) (Nishikawa et al., 1994, Blood Press, Suppl 5: 7-14). The low-dose ([…]) was included to investigate whether a sub-therapeutic dose (in terms of anti-hypertensive activity) of candesartan was efficacious for the treatment of PDN. Once initiated, oral once-daily candesartan was administered every day for 24 wks.
# Tactile allodynia, the defining symptom of PDN, manifests as a hypersensitive response to non-noxious stimuli such as touch or light pressure, and was quantified using Von Frey filaments (VFFs). […] However, indirect methods have a questionable correlation with symptomatic severity (Malik et al., 1998, supra; Malik et al., 2001, supra). Therefore direct quantification of symptom severity using VFF assessment was used to obtain clinically relevant end points.
# For each antinociceptive testing session, rats were placed in wire mesh metabolic cages (20 cm×20 cm×20 cm) and allowed to acclimatise to the test environment for approximately 10-15 min prior to the commencement of experiments. Calibrated VFFs, delivering a force in the range 2-20 g, were then applied to the plantar surface of the hind-paw to determine the paw withdrawal thresholds defined as the minimum force necessary to elicit a brisk foot withdrawal reflex. Commencing with the VFF delivering the lowest mechanical force, the filament was applied to the plantar surface of the footpad until buckling of the filament was observed. Absence of a response after approximately 3 s prompted application of the next VFF of increasing force to the footpad.
# The onset and progression of the development of tactile allodynia in all STZ-diabetic rats were quantified by once weekly VFF paw withdrawal testing. Specifically for each rat, three separate assessments of paw withdrawal thresholds were undertaken, each approximately 5 min apart.
# [7] = Body weight, metabolic signs and general health of STZ-diabetic rats; type: in vivo, rat; details: 24 wks post-STZ rats, cessation of chronic candesartan 2.0 mg/kg/day
# From the text: Induction of STZ-diabetes produced an initial ≈5-10% reduction in (mean±SEM) body weight from 233 (±1.99) g pre-STZ administration to 218 (±3.28) g at 4 wks post-STZ, followed by a gradual return to the pre-study weight over the ensuing 6-mth study period (FIG. 1).
# One rat died 5 wks after the cessation of candesartan therapy.
# [8] = tested on: STZ-diabetic rats; experiment: Reversal protocol: AT1 antagonist from 12 wks post-STZ, morphine antinociception; details: oral candesartan 2 mg/kg/day for 4 wks commencing 12 wks post-STZ; tested at 16 wks post-STZ
# Method: STZ-diabetic rats (n=18) were allocated to one of three experimental groups. Groups one and two received once-daily oral administration of antihypertensive doses of one of the AT1-antagonists, viz candesartan (2.0 mg/kg/day)or losartan (20 mg/kg/day), commencing at 12 weeks post-STZ administration (day 0). The third group (control STZ-diabetic rats) received no treatment.
# as §1
# The Mann-Whitney test was used to compare %MAX AUC values between treatment groups. The statistical significance criterion was p<0.05.
# [9] = oxycodone 2.0 mg/kg s.c., candesartan (0.5 mg/kg/day) treated STZ-diabetic rats, 12 wks post-STZ
# [10] = oxycodone 2.0 mg/kg s.c., candesartan (0.5 mg/kg/day) treated STZ-diabetic rats, 21 wks post-STZ
# [11] = oxycodone 2.0 mg/kg s.c., candesartan (0.5 mg/kg/day) treated STZ-diabetic rats, 24 wk post-STZ
# [12] = oxycodone 2.0 mg/kg s.c., control STZ-diabetic rats, 9 wks post-STZ
# [13] = oxycodone 2.0 mg/kg s.c., control STZ-diabetic rats, 12 wks post-STZ
# [14] = oxycodone […] s.c., candesartan (0.5 mg/kg/day) treated STZ-diabetic rats, 3 wks post-STZ
# [15] = oxycodone […] s.c., candesartan (0.5 mg/kg/day) treated STZ-diabetic rats, 9 wks post-STZ
# [16] = oral candesartan 0.5 mg/kg/day, by 22 wks post-STZ
# [17] = oral candesartan 2 mg/kg/day once daily, 24 wk post-STZ study period, relative to non-diabetic control rats
# T1 sequence (P10635 whole entry): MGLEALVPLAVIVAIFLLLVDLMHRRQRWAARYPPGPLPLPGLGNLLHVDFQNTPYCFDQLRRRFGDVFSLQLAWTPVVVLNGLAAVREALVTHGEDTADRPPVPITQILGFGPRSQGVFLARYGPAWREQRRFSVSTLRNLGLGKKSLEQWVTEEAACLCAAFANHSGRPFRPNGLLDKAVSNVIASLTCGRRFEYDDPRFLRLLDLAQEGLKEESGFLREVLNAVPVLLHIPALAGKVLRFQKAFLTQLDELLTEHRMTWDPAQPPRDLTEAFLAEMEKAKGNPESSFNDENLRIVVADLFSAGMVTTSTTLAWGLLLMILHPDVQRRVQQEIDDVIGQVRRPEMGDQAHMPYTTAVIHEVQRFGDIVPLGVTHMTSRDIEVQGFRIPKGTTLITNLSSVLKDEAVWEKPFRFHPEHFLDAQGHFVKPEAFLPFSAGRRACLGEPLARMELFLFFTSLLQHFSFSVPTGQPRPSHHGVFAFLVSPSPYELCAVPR
molecule,measurement,setting,value
CN1CC[C@]23c4c5ccc(O)c4O[C@H]2[C@@H](O)C=C[C@H]3[C@H]1C5 [morphine],ED50,"[1]; read-out: ED50 of s.c. morphine, non-diabetic rats on high-dose oral candesartan 2.0 mg/kg/day",2.3 ± 0.3 mg/kg
same,ED50,"[1]; sc, read-out: mean (±SEM) ED50 of s.c. morphine, control untreated non-diabetic rats",2.9 mg/kg
same,time to achieve the peak antinociceptive effect,"[1]; morphine 2.4 mg/kg s.c., control non-diabetic rats",45 min
same,antinociceptive efficacy,"[2]; s.c. morphine, control STZ-diabetic rats by 12 wks post-STZ (Smith et al., 2001)",completely abolished
same,ED50 morphine dose,"[2]; s.c., STZ-diabetic rats at 3 and 9 wks post-STZ, previously determined by Smith et al. (2001)",6.1 mg/kg
same,ED50 of s.c. morphine (single bolus dose),[3],~2.4 mg/kg
same,ED50,"[4]; 504 h, read-out: mean (±SEM) ED50 of s.c. morphine",2.5 mg/kg
same,ED50,"[4]; 1512 h, read-out: mean (±SEM) ED50 of s.c. morphine",2.3 mg/kg
same,ED50,"[4]; 2016 h, read-out: mean (±SEM) ED50 of s.c. morphine",2.1 mg/kg
same,ED50,"[4]; 4032 h, read-out: mean (±SEM) ED50 of s.c. morphine",2.4 mg/kg
same,antinociceptive response evoked by morphine,"[4]; control STZ-diabetic rats of the present studies, 12 wks post-STZ and beyond",marked decrease
same,time to achieve the peak antinociceptive effect,"[4]; morphine 2.4 mg/kg s.c., STZ-diabetic rats 24 wks post-STZ, oral candesartan 2.0 mg/kg/day",60 min
same,timing of the peak antinociceptive effect,"[4]; control STZ-diabetic rats, 3 wks post-STZ",approximately 45 min
same,timing of the peak antinociceptive effect,"[4]; control STZ-diabetic rats, 9 wks post-STZ",60 min
same,time to reach peak levels of antinociception,[4]; 3 wks post-STZ,45 min
same,time to reach peak levels of antinociception,[4]; beyond 12 wks post-STZ,60 min
COc1ccc2c3c1O[C@H]1C(=O)CC[C@@]4(O)[C@@H](C2)N(C)CC[C@]314 [oxycodone],ED50,"[1]; sc, control untreated non-diabetic rats, read-out: mean (±SEM) ED50 of s.c. oxycodone",1.2 mg/kg
same,ED50,"[1]; non-diabetic control rats on high-dose oral candesartan 2.0 mg/kg/day, read-out: ED50 of s.c. oxycodone",1.1 mg/kg
same,Mean (±SEM) % MPE AUC,"[1]; oxycodone […] s.c., candesartan (2.0 mg/kg/day) treated non-diabetic rats",155 (±8.5) % MPE.h
same,decrease in potency relative to non-diabetic control rats,"[2]; s.c. oxycodone, STZ-diabetic rats over 24 wk study (Smith et al., 2001)",4 fold
same,fraction of each dose O-demethylated to oxymorphone,[5],< 5%
same,ED50,"[4]; 504 h, read-out: mean (±SEM) ED50 of s.c. oxycodone",1.4 mg/kg
same,ED50,"[4]; 1512 h, read-out: mean (±SEM) ED50 of s.c. oxycodone",1.3 mg/kg
same,ED50,"[4]; 4032 h, read-out: mean (±SEM) ED50 of s.c. oxycodone",1.1 mg/kg
same,ED50,"[4]; sc, 504 h, read-out: approximate ED50 oxycodone dose",~1.5 mg/kg
same,ED50,"[4]; sc, 2016 h, read-out: approximate ED50 oxycodone dose",~2 mg/kg
same,ED50,"[4]; sc, 4032 h, read-out: approximate ED50 oxycodone dose",~3.2 mg/kg
same,Mean (±SEM) % MPE AUC,[4]; [9],116 (±8.2) % MPE.h
same,Mean (±SEM) dose normalised % MPE AUC,[4]; [9],67.70 (±4.111) % MPE AUC.h.kg.mg^−1
same,Mean (±SEM) % MPE AUC,[4]; [10],171 (±8.3) % MPE.h
same,Mean (±SEM) dose normalised % MPE AUC,[4]; [10],85.34 (±4.134) % MPE AUC.h.kg.mg^−1
same,Mean (±SEM) % MPE AUC,[4]; [11],145 (±13.0) % MPE.h
same,Mean (±SEM) dose normalised % MPE AUC,[4]; [11],72.45 (±6.527) % MPE AUC.h.kg.mg^−1
same,Mean (±SEM) % MPE AUC,[4]; [12],162 (±3.2) % MPE.h
same,Mean (±SEM) dose normalised % MPE AUC,[4]; [12],80.8 (±1.6) % MPE AUC.h.kg.mg^−1
same,Mean (±SEM) % MPE AUC,[4]; [13],168 (±5.2) % MPE.h
same,Mean (±SEM) dose normalised % MPE AUC,[4]; [13],84.2 (±2.6) % MPE AUC.h.kg.mg^−1
same,Mean (±SEM) % MPE AUC,"[4]; oxycodone 2.2** mg/kg s.c., candesartan (2.0 mg/kg/day) treated STZ-diabetic rats, 12 wks post-STZ",158 (±6.9) % MPE.h
same,Mean (±SEM) % MPE AUC,"[4]; oxycodone […] s.c., STZ-diabetic rats, 4 wks candesartan (2.0 mg/kg/day) re-initiation",157 (±8.5) % MPE.h
same,Mean (±SEM) % MPE AUC,[4]; [14],131 (±7.9) % MPE.h
same,Mean (±SEM) dose normalised % MPE AUC,[4]; [14],109.5 (±6.549) % MPE AUC.h.kg.mg^−1
same,Mean (±SEM) % MPE AUC,[4]; [15],122 (±9.1) % MPE.h
same,Mean (±SEM) dose normalised % MPE AUC,[4]; [15],102.1 (±7.611) % MPE AUC.h.kg.mg^−1
same,decrease in antinociceptive response (%MPE AUC) versus non-diabetic protocol control rats,"[4]; oxycodone […] s.c., candesartan (2.0 mg/kg/day) STZ-diabetic rats, 3 wks post-STZ",≈ 20%
same,Mean (±SEM) % MPE AUC,"[4]; oxycodone […] s.c., candesartan (2.0 mg/kg/day) treated STZ-diabetic rats, 3 wks post-STZ",120 (±8.9) % MPE.h
same,Mean (±SEM) % MPE AUC,"[4]; oxycodone […] s.c., candesartan (2.0 mg/kg/day) treated STZ-diabetic rats, 9 wks post-STZ",136 (±13.3) % MPE.h
same,Mean (±SEM) dose normalised % MPE AUC,"[4]; oxycodone […] s.c., control STZ-diabetic rats, 3 wks post-STZ",115.5 (±3.1) % MPE AUC.h.kg.mg^−1
same,Mean (±SEM) dose normalised % MPE AUC,"[4]; oxycodone […] s.c., control STZ-diabetic rats, 24 wks post-STZ",44.1 (±2.4) % MPE AUC.h.kg.mg^−1
same,decrease in oxycodone potency versus non-diabetic protocol control rats,"[4]; oxycodone […], candesartan (0.5 mg/kg/day) STZ-diabetic rats, 9 wks post-STZ",20%
same,decrease in potency versus protocol controls,"[4]; oxycodone, candesartan (0.5 mg/kg/day) STZ-diabetic rats, by 12 wks post-STZ",~50%
same,decrease in dose-normalised %MPE AUC versus protocol-control non-diabetic rats,"[4]; oxycodone, low-dose candesartan (0.5 mg/kg/day) STZ-diabetic rats, 24 wks post-STZ",~1.5 fold
candesartan,Mean (±SEM) paw withdrawal threshold,"[6]; 24 wks post-STZ on oral candesartan 2.0 mg/kg/day, immediately prior to cessation",11.9 (±0.2) g
same,Development of tactile allodynia (Von Frey filaments),[6]; oral candesartan 0.5 mg/kg/day once daily for 24 wks from STZ administration,only delayed but did not prevent the development of tactile allodynia
same,Paw withdrawal latencies versus rats given high-dose candesartan,[6]; [16],significantly lower
same,Paw withdrawal thresholds versus untreated STZ-diabetic control rats,[6]; [16],not significantly different
same,Development of tactile allodynia (Von Frey filaments),[6]; oral candesartan 2.0 mg/kg/day once daily for 24 wks from STZ administration,completely attenuated the development of tactile allodynia
same,Mean paw withdrawal threshold versus non-diabetic control rodents,"[6]; oral candesartan 2.0 mg/kg/day, 24 wks post-STZ",not significantly different
same,Paw withdrawal thresholds after re-initiation of treatment,[6]; re-initiation of oral candesartan 2.0 mg/kg/day for six wks after six wks cessation,restored the paw withdrawal thresholds
same,Mean (±SEM) paw withdrawal threshold,[6]; six wks after cessation of chronic oral candesartan 2.0 mg/kg/day,6.0 (±0.3) g
same,Mean (±SEM) paw withdrawal threshold,[6]; within two wks of re-initiation of oral candesartan 2.0 mg/kg/day,11.3 ± 0.1 g
same,Physical appearance and health after cessation of treatment,[7],apparent general decline in the physical appearance and health
same,Effect on loss of morphine potency,"[4]; oral candesartan 0.5 mg/kg/day once daily, relative to control untreated STZ-diabetic rats",attenuated the loss of morphine potency
same,Effect on temporal loss of morphine potency and efficacy,[4]; [17],completely prevented the temporal loss of morphine potency and efficacy
same,Effect on temporal loss of oxycodone potency and efficacy,[4]; [17],completely prevented the temporal loss of oxycodone potency and efficacy
same,Effect on morphine's antinociceptive effects (s.c. morphine 6.1 mg/kg),[8],preserved morphine's antinociceptive effects; also recorded: morphine sensitivity was preserved
